Usually Km stands for the concentration of substrate that gives half-maximal velocity.

Numbering of substitutions follows the chain as printed. Where two headings read alike, the source gives them in different places.

Common to all, as to assay type: biochemical
The target in assay [1] is T1, Escherichia coli malate dehydrogenase Ec-Mdh variant R81A M85E, SEQ ID No. 106 (Escherichia coli, UniProt P61889, M85E/R81A).
T1 sequence (P61889 1-312 R81A/M85E): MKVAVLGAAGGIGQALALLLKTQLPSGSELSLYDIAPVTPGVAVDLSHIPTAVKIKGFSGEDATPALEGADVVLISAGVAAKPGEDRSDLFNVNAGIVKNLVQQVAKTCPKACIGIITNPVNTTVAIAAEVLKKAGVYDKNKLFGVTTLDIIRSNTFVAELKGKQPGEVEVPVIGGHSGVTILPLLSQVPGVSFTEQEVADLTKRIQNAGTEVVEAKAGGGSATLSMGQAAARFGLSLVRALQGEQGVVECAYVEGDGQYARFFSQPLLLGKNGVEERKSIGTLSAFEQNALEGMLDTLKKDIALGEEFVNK
Put plainly: OHB/oxaloacetate reductase assay, Ec-Mdh R81A M85E. To be noted: pH 7, 37° C. The method, then: (§1) Enzymatic assays: The reaction mixture contained 60 mM Hepes (pH 7), 50 mM potassium chloride, 5 mM MgCl2, 0.25 mM NADH, (optionally 5 mM fructose-1,6-bisphosphate) (all products from Sigma), and appropriate amounts of purified malate or lactate dehydrogenase or cell extract. Reactions were started by adding appropriate amounts of 2-oxo-4-hydroxybutyrate (OHB), pyruvate, or oxaloacetate (OAA). Enzymatic assays were carried out at 37° C. in 96-well flat bottomed microtiter plates in a final volume of 250 μL. The reactions were followed by the characteristic absorption of NADH at 340 nm (εNADH=6.22 mM^−1 cm^−1) in a microplate reader (BioRad 680XR).
(§2) Site-directed mutagenesis of the mdh gene from E. coli was carried out as described in Example 2 using the primers listed in Table 5. Plasmid pET28-Ec-mdh was used as the template.
(§3) Mutant enzymes were expressed, purified and tested for OHB and oxaloacetate reductase activity as described in Example 1. […] The mutation R81A in Ec-Mdh was combined with additional changes in the protein sequence.

Assay [2] addresses T2, Escherichia coli malate dehydrogenase Ec-Mdh variant R81A M85Q, SEQ ID No. 104 (Escherichia coli, UniProt P61889, M85Q/R81A).
T2 sequence (P61889 1-312 R81A/M85Q): T1 sequence (P61889 1-312 R81A/M85E) with E85Q
Put plainly: OHB/oxaloacetate reductase assay, Ec-Mdh R81A M85Q. The note with it: pH 7, 37° C. How it is done: as §1, §2, §3

In assay [3] the target is T3, Escherichia coli malate dehydrogenase Ec-Mdh variant R81A, SEQ ID No. 102 (Escherichia coli, UniProt P61889, R81A).
T3 sequence (P61889 with tags, fused parts or gaps R81A): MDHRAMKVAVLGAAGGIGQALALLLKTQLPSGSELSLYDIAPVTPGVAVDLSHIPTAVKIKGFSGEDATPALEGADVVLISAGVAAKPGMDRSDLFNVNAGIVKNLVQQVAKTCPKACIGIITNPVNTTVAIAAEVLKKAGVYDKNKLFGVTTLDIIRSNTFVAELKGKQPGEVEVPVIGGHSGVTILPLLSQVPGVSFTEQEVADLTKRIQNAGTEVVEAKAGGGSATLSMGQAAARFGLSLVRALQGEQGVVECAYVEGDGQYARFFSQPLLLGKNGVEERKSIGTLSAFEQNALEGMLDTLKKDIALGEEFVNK
The assay can be described thus: OHB/oxaloacetate reductase assay, Ec-Mdh R81A. The note with it: pH 7, 37° C. How it is done:
as §1, §2, §3

Assay [4] addresses T4, Escherichia coli malate dehydrogenase Ec-Mdh variant R81A M85E I12V, SEQ ID No. 110 (Escherichia coli, UniProt P61889, I12V/M85E/R81A).
T4 sequence (P61889 1-312 I12V/R81A/M85E): T1 sequence (P61889 1-312 R81A/M85E) with I12V
The assay can be described thus: OHB/oxaloacetate reductase assay, Ec-Mdh R81A M85E I12V. The note with it: pH 7, 37° C. How it is done: as §1, §2, §3

Assay [5] concerns the target T5, Escherichia coli malate dehydrogenase Ec-Mdh variant R81A 112V, SEQ ID No. 115 (Escherichia coli, UniProt P61889, I12V/R81A).
T5 sequence (P61889 1-312 I12V/R81A): T1 sequence (P61889 1-312 R81A/M85E) with I12V, E85M
Put plainly: OHB/oxaloacetate reductase assay, Ec-Mdh R81A 112V. To be noted: pH 7, 37° C. How it is done:
as §1, §2, §3

Assay [6] concerns the target T6, Escherichia coli malate dehydrogenase Ec-Mdh variant R81A D86S, SEQ ID No. 1114 (Escherichia coli, UniProt P61889, D86S/R81A).
T6 sequence (P61889 1-312 R81A/D86S): T1 sequence (P61889 1-312 R81A/M85E) with E85M, D86S
The assay can be described thus: OHB/oxaloacetate reductase assay, Ec-Mdh R81A D86S. The note with it: pH 7, 37° C. The method, then: as §1, §2, §3

The target in assay [7] is T7, Escherichia coli malate dehydrogenase Ec-Mdh variant R81A G179D, SEQ ID No. 112 (Escherichia coli, UniProt P61889, G179D/R81A).
T7 sequence (P61889 1-312 R81A/G179D): T1 sequence (P61889 1-312 R81A/M85E) with E85M, G179D
Put plainly: OHB/oxaloacetate reductase assay, Ec-Mdh R81A G179D. The note with it: pH 7, 37° C. How it is done:
as §1, §2, §3

Assay [8] addresses T8, Escherichia coli (L)-malate dehydrogenase Ec-Mdh, wild type, SEQ ID NO: 2 (Escherichia coli, UniProt P61889).
T8 construct: made in house; host or cells: E. coli BL21 (DE3) star
T8 sequence (P61889 1-312): T1 sequence (P61889 1-312 R81A/M85E) with A81R, E85M
Put plainly: OHB/oxaloacetate reductase assay (NADH oxidation at 340 nm), Ec-Mdh wild type. The note with it: Table 6; up to 50 mM OHB; pH 7, 37° C., 0.25 mM NADH. An excerpt:
The genes coding for (L)-malate dehydrogenase in Escherichia coli, Ec-mdh (SEQ ID NO: 1), (D)-lactate dehydrogenase in E. coli, Ec-ldhA (SEQ ID NO: 3), (L)-lactate dehydrogenase of Lactococcus lactis, Ll-ldhA (SEQ ID NO: 5), (L)-lactate dehydrogenase of Bacillus subtilis, Bs-ldh (SEQ ID NO: 7), (L)-lactate dehydrogenase of Geobacillus stearothermophilus, Gs-ldh (SEQ ID NO: 9), the two isoforms of the (L)-lactate dehydrogenase of Oryctalagus cuniculus, Oc-ldhA (SEQ ID NO: 11 and SEQ ID NO: 13), were amplified by PCR using the high-fidelity polymerase Phusion™ (Fermentas) and the primers listed in Table 1. Genomic DNAs of E. coli MG1655, L. lactis IL1403, and B. subtilis strain 168 were used as the template. The genes Oc-ldhA, and Gs-ldh were codon-optimized for expression in E. coli and synthesized by MWG Eurofins. The primers introduced restriction sites (Table 1) upstream of the start codon and downstream of the stop codon, respectively, facilitating the ligation of the digested PCR products into the corresponding sites of the pET28a+ (Novagen) expression vector using T4 DNA ligase (Fermentas). Ligation products were transformed into E. coli DH5a cells (NEB). […]

The target in assay [9] is T9, Escherichia coli malate dehydrogenase Ec-Mdh variant R81A M85Q I12V, SEQ ID No. 108 (Escherichia coli, UniProt P61889, I12V/M85Q/R81A).
T9 sequence (P61889 1-312 I12V/R81A/M85Q): T1 sequence (P61889 1-312 R81A/M85E) with I12V, E85Q
The assay can be described thus: OHB/oxaloacetate reductase assay, Ec-Mdh R81A M85Q I12V. The note with it: up to 0.5 mM oxaloacetate; pH 7, 37° C.; read-out: Km (OAA). The method, then:
as §1, §2, §3

Where [10] appears, read: up to 50 mM OHB, read-out: Km (OHB).
Where [11] appears, read: up to 0.5 mM oxaloacetate, read-out: Km (OAA).

Turning to `O=C(O)C(=O)CCO` [OHB, 2-oxo-4-hydroxybutyrate], the Km in [1] (setting [10]), in [2] (setting [10]), in assay [3] (setting [10]), in [4] (setting [10]), in assay [5] (setting [10]) and in assay [6] (setting [10]) was over 50 mM each time. The Km in [7] (setting [10]) and in [8] was over 50 mM each time.

With `O=C(O)CC(=O)C(=O)O` [oxaloacetate, reference compound], the Michaelis constant (Km) in assay [1] (setting [11]), in assay [2] (setting [11]), in [3] (setting [11]), in assay [4] (setting [11]), in assay [5] (setting [11]) and in [6] (setting [11]) was over 0.5 mM each time. The Michaelis constant (Km) in assay [9] and in assay [7] (setting [11]) was over 0.5 mM each time.

These data come from patent US11505811B2, “Method for the preparation of 2,4-dihydroxybutyrate” (ADISSEO FRANCE S.A.S., priority 2012, dated 2022).
